From patent US20110190503A1, “Thiazolopyridin-2-yloxy-phenyl and thiazolopyrazin-2-yloxy-phenyl amines as modulators of leukotriene A4 hydrolase” (Janssen Pharmaceutical NV, priority 2008, published 2011)
Where two headings read alike, the source gives them in different places.

Columns and labels:
[1] = biological target: T1, recombinant human LTA4 hydrolase (rhLTA4H) (Homo sapiens, UniProt P09960); assay: Recombinant human LTA4 hydrolase assay for LTA4 hydrolase inhibitor activity; format: biochemical; details: rhLTA4H, LTA4 substrate, LTB4 by immunoassay; single determination or average; read-out: IC50
T1 construct: made in house; host or cells: Spodoptera frugiperda (Sf-9) cells, recombinant baculovirus (pFastBac1)
T1 sequence (P09960 1-611): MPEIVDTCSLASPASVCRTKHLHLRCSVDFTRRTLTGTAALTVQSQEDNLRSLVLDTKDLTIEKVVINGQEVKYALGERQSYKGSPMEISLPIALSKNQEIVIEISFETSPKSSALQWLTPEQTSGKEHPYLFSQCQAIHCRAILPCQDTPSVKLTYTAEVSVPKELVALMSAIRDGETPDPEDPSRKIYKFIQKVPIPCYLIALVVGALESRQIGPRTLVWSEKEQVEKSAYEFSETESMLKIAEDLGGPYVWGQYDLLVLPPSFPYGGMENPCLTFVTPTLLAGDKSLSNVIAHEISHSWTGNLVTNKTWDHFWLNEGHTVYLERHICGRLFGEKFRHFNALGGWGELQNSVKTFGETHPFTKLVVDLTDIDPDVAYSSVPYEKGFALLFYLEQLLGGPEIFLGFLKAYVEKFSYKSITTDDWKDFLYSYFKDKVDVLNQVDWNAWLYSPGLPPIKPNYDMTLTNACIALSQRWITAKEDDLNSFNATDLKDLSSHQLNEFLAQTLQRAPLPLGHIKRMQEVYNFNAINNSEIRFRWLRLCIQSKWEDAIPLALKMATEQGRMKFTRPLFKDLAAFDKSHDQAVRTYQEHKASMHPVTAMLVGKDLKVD
Summary of the method: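 Recombinant human LTA4H from baculovirus-infected Sf-9 cells (10 ng) pre-incubated 10 min at rt with compound (10% DMSO in dilutions), then reacted with free-acid LTA4 for 30 min at rt. LTB4 measured by ELISA; IC50 by nonlinear regression. Values are single determinations or averages.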

[2] = system: LTB4 production by calcium ionophore-stimulated murine blood; assay: LTB4 production by calcium ionophore-stimulated murine blood for LTA4H inhibitor activity; format: cell-based, CD-1 mice; details: murine blood diluted 1 in 15, calcium ionophore A23187, LTB4 by immunoassay, read-out: IC50
Protocol: Assay 2: LTB4 Production by Calcium Ionophore-Stimulated Murine Blood for LTA4H Inhibitor Activity
CD-1 mice were sacrificed, and blood was collected in heparin-containing syringes by cardiac puncture. […] After the microtiter plate contents were incubated for 15 min at 37° C. in a humidified incubator, calcium ionophore A23187 (Sigma Chemical Co., St. Louis, Mo.) was added to each sample well (final concentration=7 μg/mL). The incubation was continued under the same conditions for an additional 30 min to allow LTB4 formation. The reaction was terminated by centrifugation (833×g, 10 min at 4° C.), and supernatants were analyzed for LTB4 by a commercially available enzyme-linked immunoassay (Cayman Chemical Co.) according to the manufacturer's instructions. Positive controls, under essentially identical conditions but without addition of an inhibitor compound, and negative unstimulated controls, containing all assay components except calcium ionophore, were routinely run in each experiment. […] The values presented here are the result of a single determination or an average of two or more determinations, as indicated in parentheses following each value. For compounds tested three or more times, the average value is followed by the standard deviation

Which results are given for c1cnc2nc(Oc3ccc(CCN4CCC(c5ccncc5)CC4)cc3)sc2c1 [Example 65, 2-{4-[2-(4-Pyridin-4-ylpiperidin-1-yl)ethyl]phenoxy}[1,3]thiazolo[4,5-b]pyridine]?
IC50 [1]: 9.6 nM; IC50 ([2]; Mus musculus): 100 nM

Which IC50 [1] does the source give for FC(F)(F)C1CCN(Cc2ccc(Oc3nc4ncccc4s3)cc2)CC1 [Example 92, 2-(4-{[4-(Trifluoromethyl)piperidin-1-yl]methyl}phenoxy)[1,3]thiazolo[4,5-b]pyridine] here?
Its IC50 is 4 nM.

And the IC50 ([2]; Mus musculus)?
The IC50 was 67 nM.

Which results are given for CC(=O)N1C[C@H]2CC[C@@H](C1)N2Cc1ccc(Oc2nc3ncccc3s2)cc1 [Example 107, meso-2-(4-{[3-Acetyl-3,8-diazabicyclo[3.2.1]oct-8-yl]methyl}phenoxy)[1,3]thiazolo[4,5-b]pyridine]?
IC50 [1]: 4 nM; IC50 ([2]; Mus musculus): 3000 nM

What does the source list for CCCCN(CC)CCc1ccc(Oc2nc3ncc(C)cc3s2)cc1 [Example 178, N-Ethyl-N-(2-{4-[(6-methyl[1,3]thiazolo[4,5-b]pyridin-2-yl)oxy]phenyl}ethyl)butan-1-amine]?
IC50 [1]: 11 nM; IC50 ([2]; Mus musculus): 260 nM

Which results are given for c1ccc(OC2CCN(Cc3ccc(Oc4nc5ncccc5s4)cc3)CC2)cc1 [Example 260, 2-{4-[(4-Phenoxypiperidin-1-yl)methyl]phenoxy}[1,3]thiazolo[4,5-b]pyridine]?
IC50 [1]: 8 nM; IC50 ([2]; Mus musculus): 43 nM

For OC1(c2ccccc2)CCN(Cc2ccc(Oc3nc4ncccc4s3)cc2)CC1 [Example 105, 4-Phenyl-1-[4-([1,3]thiazolo[4,5-b]pyridin-2-yloxy)benzyl]piperidin-4-ol], which IC50 [1] is on record?
The IC50 was 0.53 nM.

And the IC50 ([2]; Mus musculus)?
Its IC50 is 15 nM.

With c1cnc2nc(Oc3ccc(OCCN4CCOCC4)cc3)sc2c1 [Example 11, 2-[4-(2-Morpholin-4-ylethoxy)phenoxy][1,3]thiazolo[4,5-b]pyridine] as the molecule, how does the IC50 [1] read?
The IC50 was 98 nM.

And the IC50 ([2]; Mus musculus)?
Its IC50 is 190 nM.

With CCCN(CCc1ccc(Oc2nc3ncccc3s2)cc1)CC1CC1 [Example 57, N-(Cyclopropylmethyl)-N-{2-[4-([1,3]thiazolo[4,5-b]pyridin-2-yloxy)phenyl]ethyl}propan-1-amine] as the molecule, how does the IC50 [1] read?
Its IC50 is 3 nM.

And the IC50 ([2]; Mus musculus)?
Its IC50 is 16 nM.

With F[C@@H]1CCN(Cc2ccc(Oc3nc4ncccc4s3)cc2)C1 [Example 87, 2-(4-{[(3R)-3-Fluoropyrrolidin-1-yl]methyl}phenoxy)[1,3]thiazolo[4,5-b]pyridine] as the molecule, how does the IC50 [1] read?
Its IC50 is 30 nM.

What about the IC50 ([2]; Mus musculus) of the same molecule?
Its IC50 is 24 nM.

For CC(=O)N1C2CCC1CN(Cc1ccc(Oc3nc4ncccc4s3)cc1)C2 [Example 185, meso-2-[(4-{[8-Acetyl-3,8-diazabicyclo[3.2.1]oct-3-yl]methyl}phenyl)oxy][1,3]thiazolo[4,5-b]pyridine], which IC50 [1] is on record?
The IC50 was 7 nM.

And the IC50 [2]?
The IC50 was 850 nM.

For c1ccc(OC2CCN(Cc3ccc(Oc4nc5ncccc5s4)cc3)CC2)nc1 [Example 261, 2-(4-{[4-(Pyridin-2-yloxy)piperidin-1-yl]methyl}phenoxy)[1,3]thiazolo[4,5-b]pyridine], which IC50 [1] is on record?
Its IC50 is 7 nM.

And the IC50 ([2]; Mus musculus)?
The IC50 was 38 nM.

For c1ccc(SC2CCN(Cc3ccc(Oc4nc5ncccc5s4)cc3)CC2)cc1 [Example 264, 2-(4-{[4-(Phenylsulfanyl)piperidin-1-yl]methyl}phenoxy)[1,3]thiazolo[4,5-b]pyridine], which IC50 [1] is on record?
Its IC50 is 30 nM.

What about the IC50 ([2]; Mus musculus) of the same molecule?
Its IC50 is 159 nM.

What does the source list for c1cnc2nc(Oc3ccc(OCCN4CCC(c5ccncc5)CC4)cc3)sc2c1 [Example 29, 2-{4-[2-(4-Pyridin-4-ylpiperidin-1-yl)ethoxy]phenoxy}[1,3]thiazolo[4,5-b]pyridine]?
IC50 [1]: 13 nM; IC50 ([2]; Mus musculus): 180 nM

With c1ccc(CC2CCN(Cc3ccc(Oc4nc5ncccc5s4)cc3)CC2)cc1 [Example 102, 2-{4-[(4-Benzylpiperidin-1-yl)methyl]phenoxy}[1,3]thiazolo[4,5-b]pyridine] as the molecule, how does the IC50 [1] read?
Its IC50 is 15 nM.

What about the IC50 ([2]; Mus musculus) of the same molecule?
The IC50 was 210 nM.

What does the source list for c1ccc(SC2CCN(Cc3ccc(Oc4nc5ncccc5s4)cc3)CC2)nc1 [Example 263, 2-(4-{[4-(Pyridin-2-ylsulfanyl)piperidin-1-yl]methyl}phenoxy)[1,3]thiazolo[4,5-b]pyridine]?
IC50 [1]: 4 nM; IC50 ([2]; Mus musculus): 462 nM

Which IC50 [1] does the source give for Cc1ccnc2nc(Oc3ccc(OCCN4CC5CN(C(=O)C6CCC6)CC5C4)cc3)sc12 (centres unmarked) [Example 146, 2-(4-{2-[5-(Cyclobutylcarbonyl)hexahydropyrrolo[3,4-c]pyrrol-2(1H)-yl]ethoxy}phenoxy)-7-methyl[1,3]thiazolo[4,5-b]pyridine] here?
Its IC50 is 97 nM.

What about the IC50 ([2]; Mus musculus) of the same molecule?
The IC50 was 450 nM.

With NC(=O)N1CC2CN(CCc3ccc(Oc4nc5cccnc5s4)cc3)CC2C1 (centres unmarked) [Example 70, 5-{2-[4-([1,3]Thiazolo[5,4-b]pyridin-2-yloxy)phenyl]ethyl}hexahydropyrrolo[3,4-c]pyrrole-2(1H)-carboxamide] as the molecule, how does the IC50 [1] read?
Its IC50 is 72 nM.

What about the IC50 ([2]; Mus musculus) of the same molecule?
Its IC50 is 350 nM.

How did the IC50 [1] turn out when OC1(c2ccc(Cl)cc2)CCN(CCOc2ccc(Oc3nc4ncccc4s3)cc2)CC1 [Example 30, 4-(4-Chlorophenyl)-1-{2-[4-([1,3]thiazolo[4,5-b]pyridin-2-yloxy)phenoxy]ethyl}piperidin-4-ol] was run?
The IC50 was 30 nM.

And the IC50 ([2]; Mus musculus)?
Its IC50 is 150 nM.

Which IC50 [1] does the source give for CC(=O)N[C@@H]1C[C@H]2CC[C@@H](C1)N2CCOc1ccc(Oc2nc3cccnc3s2)cc1 [Example 153, meso-N-[(3-exo)-8-{2-[4-([1,3]Thiazolo[5,4-b]pyridin-2-yloxy)phenoxy]ethyl}-8-azabicyclo[3.2.1]oct-3-yl]acetamide] here?
The IC50 was 35 nM.

And the IC50 ([2]; Mus musculus)?
Its IC50 is 360 nM.

How did the IC50 [1] turn out when CC(=O)N1CC2CC(CN(Cc3ccc(Oc4nc5ncccc5s4)cc3)C2)C1 [Example 294, meso-2-(4-{[7-Acetyl-3,7-diazabicyclo[3.3.1]non-3-yl]methyl}phenoxy)[1,3]thiazolo[4,5-b]pyridine] was run?
The IC50 was 23 nM.

What about the IC50 ([2]; Mus musculus) of the same molecule?
Its IC50 is 79 nM.

CC(=O)NC1CCN(CCOc2ccc(Oc3nc4ncc(C)cc4s3)cc2)CC1 [Example 154, N-[1-(2-{4-[(6-Methyl[1,3]thiazolo[4,5-b]pyridin-2-yl)oxy]phenoxy}ethyl)piperidin-4-yl]acetamide] was tested. Which IC50 [1] did it give?
Its IC50 is 49 nM.

And the IC50 ([2]; Mus musculus)?
The IC50 was 330 nM.

With OCC1CCN(Cc2ccc(Oc3nc4ncccc4s3)cc2)CC1 [Example 95, {1-[4-([1,3]Thiazolo[4,5-b]pyridin-2-yloxy)benzyl]piperidin-4-yl}methanol] as the molecule, how does the IC50 [1] read?
The IC50 was 11 nM.

What about the IC50 ([2]; Mus musculus) of the same molecule?
Its IC50 is 29 nM.

For NC(=O)N[C@H]1C[C@H]2CC[C@@H](C1)N2CCc1ccc(Oc2nc3cccnc3s2)cc1 [Example 72, meso-1-[(3-endo)-8-{2-[4-([1,3]Thiazolo[5,4-b]pyridin-2-yloxy)phenyl]ethyl}-8-azabicyclo[3.2.1]oct-3-yl]urea], which IC50 [1] is on record?
Its IC50 is 47 nM.

And the IC50 ([2]; Mus musculus)?
The IC50 was 1040 nM.

Which results are given for OC1(c2cccc(C(F)(F)F)c2)CCN(CCOc2ccc(Oc3nc4ncccc4s3)cc2)CC1 [Example 33, 1-{2-[4-([1,3]Thiazolo[4,5-b]pyridin-2-yloxy)phenoxy]ethyl}-4-[3-(trifluoromethyl)phenyl]piperidin-4-ol]?
IC50 [1]: 17 nM; IC50 ([2]; Mus musculus): 480 nM

For c1cncc(OC2CCN(CCOc3ccc(Oc4nc5ncccc5s4)cc3)CC2)c1 [Example 4, 2-(4-{2-[4-(Pyridin-3-yloxy)piperidin-1-yl]ethoxy}phenoxy)[1,3]thiazolo[4,5-b]pyridine], which IC50 [1] is on record?
The IC50 was 9 nM.

What about the IC50 ([2]; Mus musculus) of the same molecule?
Its IC50 is 54 nM.

c1cnc2sc(Oc3ccc(OCCN4CCC(c5ccncc5)CC4)cc3)nc2c1 [Example 42, 2-{4-[2-(4-Pyridin-4-ylpiperidin-1-yl)ethoxy]phenoxy}[1,3]thiazolo[5,4-b]pyridine] was tested. Which IC50 [1] did it give?
Its IC50 is 83 nM.

And the IC50 ([2]; Mus musculus)?
The IC50 was 580 nM.

With c1cnc2nc(Oc3ccc(CN4CCC(N5CCCCC5)CC4)cc3)sc2c1 [Example 256, 1′-[4-([1,3]Thiazolo[4,5-b]pyridin-2-yloxy)benzyl]-1,4′-bipiperidine] as the molecule, how does the IC50 [1] read?
The IC50 was 87 nM.

What about the IC50 ([2]; Mus musculus) of the same molecule?
The IC50 was 178 nM.

Which results are given for OC1(c2cccc(C(F)(F)F)c2)CCN(CCc2ccc(Oc3nc4ncccc4s3)cc2)CC1 [Example 64, 1-{2-[4-([1,3]Thiazolo[4,5-b]pyridin-2-yloxy)phenyl]ethyl}-4-[3-(trifluoromethyl)phenyl]piperidin-4-ol]?
IC50 [1]: 27 nM; IC50 ([2]; Mus musculus): 220 nM
